The term IC50 denotes the concentration at which inhibition is half-maximal. Read a high IC50 as weaker potency in that assay.

SMILES strings stand for the structures. Where only a bound is given, the exact number is not on record here.

Data on six compounds can be found in patent publication US8680251B2, “Triterpenoid 2-deoxy glycosides, method of preparation thereof and use thereof as medicaments” (Univerzita Palackeho V Olomouci, priority 2008, dated 2014).

Data set [1] concerns MCF-7 (human breast adenocarcinoma, p53 wild type). The data set is described as follows: Cytotoxic MTT test, MCF-7. It is filed as cell-based. As to conditions: 72 h. From the text:
(§1) Cytotoxic MTT test on cell lines derived from normal tissues and tumors were used for assessing the antitumor activity of the novel compounds in vitro. We used namely the lines K562 (human myeloid leukemia), K562-tax (human myeloid leukemia resistant to taxol and overexpressing the protein of multiple drug resistance PgP), CEM (T-lymfoblastic leukemia), CEM-DNR-bulk (T-lymfoblastic leukemia resistant to doxorubicin, lacking the expression of the target gene for topoisomerase II alfa inhibitors and expressing the multiple drug resistance protein MRP1), line A549 (human lung adenocarcinoma), line HT-29 (human colorectal adenocarcinoma), MCF-7 (human breast adenocarcinoma, p53 wild type), HCT116 p53wt (human colorectal adenocarcinoma, wild-type p53), HCT116 p53mut (human colorectal adenocarcinoma with mutated p53), U87Mg (human glioblastoma). Expression characteristics, sensitivity profiles to classical antitumor drugs and methodology of the cytotoxic MTT test were repeatedly published (Nosková V. et al., Neoplasma 2002, S arek J. et al., J. Med. Chem., 2003, Dzubák P. et al., Bioorg. Med. Chem., 2006).
(§2) The MTT test was carried out according to the following procedure. The tested compound in six dilutions (final concentration of 250 μmol/l, another five concentrations were obtained by 4-fold, 16-fold, 64-fold, 256-fold and 1024-fold dilution of this solution) was added to tissue culture of cells in the cultivation plate wells. Each concentration was tested in doublet. The cell suspension was incubated in the environment containing the tested compound for 72 h at 37° C., in 5% CO2 atmosphere and 100% humidity. MTT—[3-(4,5-dimethylthiazol-2-yl)-2,5-difenyl-2H-tetrazolium bromid]—was then added to each well and the incubation was continued for additional 4 h. The incubation was finished by an addition of sodium dodecansulphonate and the percentage of surviving cells was determined spectrophotometrically at 540 nm. The concentration lethal for 50% of the tumor cells—IC50—was calculated from dose-response curves.
In general terms: Tetrazolium dyes change colour on reduction, which living cells bring about.

For data set [2], the system named is HT-29 (human colorectal adenocarcinoma). The experiment in a line: Cytotoxic MTT test, HT-29. It is filed as cell-based. As to conditions: HT-29 cells, 72 h.
From the text: as §1, §2

The subject of data set [3] is K562 (human myeloid leukemia). The data set is described as follows: Cytotoxic MTT test, K562. It is filed as cell-based. As to conditions: K562 cells, 72 h.
From the text: as §1, §2

The subject of data set [4] is CEM (T-lymfoblastic leukemia). The data set is described as follows: Cytotoxic MTT test, CEM. Type of data set: cell-based. Conditions: CEM cells, 72 h.
From the text: as §1, §2

Data set [5] has as its system U87Mg (human glioblastoma). The experiment in a line: Cytotoxic MTT test, U87Mg. It is filed as cell-based. As to conditions: U87Mg cells, 72 h.
From the text: as §1, §2

Data set [6] deals with CEM-DNR-bulk (T-lymfoblastic leukemia resistant to doxorubicin). The experiment in a line: Cytotoxic MTT test, CEM-DNR-bulk. Type of data set: cell-based. As to conditions: CEM-DNR-BULK cells, 72 h.
From the text: as §1, §2

For a further data set, the system named is PC-3. The data set is described as follows: Cytotoxic MTT test, PC-3. It is filed as cell-based. Conditions: PC-3 cells, 72 h.
Data set [7] deals with HCT116 p53mut (human colorectal adenocarcinoma with mutated p53). The data set is described as follows: Cytotoxic MTT test, HCT116 p53mut. Type of data set: cell-based. As to conditions: 72 h.
From the text: as §1, §2

Data set [8] concerns K562-tax (human myeloid leukemia resistant to taxol). The data set is described as follows: Cytotoxic MTT test, K562-tax. Type of data set: cell-based. As to conditions: K562-tax cells, 72 h.
From the text: as §1, §2

The test system of data set [9] is HCT116 p53wt (human colorectal adenocarcinoma, wild-type p53). The data set is described as follows: Cytotoxic MTT test, HCT116 p53wt. Type of data set: cell-based. As to conditions: 72 h.
From the text: as §1, §2

A short description of data set [10]: Storage stability of cyclodextrin solution. Type of data set: physicochemical. Conditions: solution of 3a with 2-hydroxypropyl-γ-cyclodextrin in water/propylene glycol, freezer at −20 C, several months. The method, then:
2-hydroxypropyl-γ-cyclodextrin (7.00 g) was dissolved under vigorous stirring and at the temperature of 50° C. in a mixture of water (14.0 ml) and propylene glycol (6.0 ml). 2-deoxy galactoside 3a (1.00 g) is then added at once into the resulting colourless viscous solution and the mixture is vigorously stirred at the temperature of 50° C. Usually, 20 min is needed for complete dissolution. After complete dissolution of the triterpenoid, the resulting bright solution is cooled down to room temperature, filtered by an injection syringe filter (hydrophilic, pore size 0.22 μm) in order to be sterile and is placed to a refrigerator. […] The thus prepared formulation can be used for oral or, after optionally adding a saline solution, for intravenous administration.

Take `CC(=O)OC[C@H]1O[C@H](OC[C@@]23CC[C@]4(C)C(CCC5[C@@]6(C)CC[C@H](OC(C)=O)C(C)(C)C6CC[C@]54C)C2=C(C(C)C)C(=O)C3)C[C@@H](OC(C)=O)[C@H]1OC(C)=O` (stereo partly shown) [Compound 1a]: the IC50 is 11.4 µM in data set [1] (MCF-7 cells); 11.4 µM in [2]; 2.4 µM in [3]; 1.8 µM in data set [4]; ≥ 250 µM in data set [5]; 12.5 µM in data set [6]. The IC50 was 23.5 µM in the data set with PC-3, 8.8 µM in [7] (HCT116 p53 mut cells), 9.8 µM in [8] and 7.9 µM in [9] (HCT116 p53wt cells).
Take `COC(=O)[C@@]12CC[C@]3(C)C(CCC4[C@@]5(C)CC[C@H](O[C@@H]6C[C@@H](O)[C@H](O)[C@@H](CO)O6)C(C)(C)C5CC[C@]43C)C1=C(C(C)C)C(=O)C2` (stereo partly shown) [Compound 3b]: the IC50 is 18.4 µM in data set [1] (MCF-7 cells); 18.9 µM in data set [2]; 11.6 µM in [3]; 6.2 µM in [4]; 42.7 µM in data set [5]; 25 µM in data set [6]. Also, the IC50 turned out to be 36.4 µM in the data set with PC-3, 21 µM in data set [7] (HCT116 p53 mut cells), 12.9 µM in data set [8] and 11.5 µM in data set [9] (HCT116 p53wt cells).
With `COC(=O)[C@@]12CC[C@]3(C)C(CCC4[C@@]5(C)CC[C@H](O[C@@H]6C[C@@H](O)[C@@H](O)[C@@H](CO)O6)C(C)(C)C5CC[C@]43C)C1=C(C(C)C)C(=O)C2` (stereo partly shown) [Compound 3a], the IC50 amounted to 13.6 µM in data set [1] (MCF-7 cells); 17.8 µM in data set [2]; 11.5 µM in data set [3]; 4.7 µM in data set [4]; 53 µM in data set [5]; 34.4 µM in data set [6]. In addition, the IC50 was determined as 11.2 µM with PC-3, 17.5 µM in [7] (HCT116 p53 mut cells), 15.9 µM in data set [8] and 10.3 µM in data set [9] (HCT116 p53wt cells). For the same compound, the decomposition on storage result in [10] is “without any detectable decomposition”.
Regarding `COC(=O)[C@@]12CC[C@]3(C)C(CCC4[C@@]5(C)CC[C@H](OC6CC(OC(C)=O)C(OC(C)=O)C(COC(C)=O)O6)C(C)(C)C5CC[C@]43C)C1=C(C(C)C)C(=O)C2` (stereo partly shown) [Compound 2b], the IC50 in data set [1] (Homo sapiens, MCF7, MCF-7 cells) was 2.5 µM; in data set [2] (Homo sapiens) it was 2.4 µM; in [3] (Homo sapiens), 0.6 µM; in data set [4] (Homo sapiens, CCRF-CEM), 0.6 µM; in data set [5] (Homo sapiens, U-87 MG), ≥ 250 µM; in [6], 25 µM. The IC50 in the data set with PC-3 (Homo sapiens) is 22.1 µM; in [7] (Homo sapiens, HCT-116, HCT116 p53 mut cells) it was 3.5 µM; in [8] (Homo sapiens) it was 3 µM; in data set [9] (Homo sapiens, HCT-116, HCT116 p53wt cells), 1.6 µM.
Turning to `CC(=O)OC[C@H]1O[C@H](OC[C@@]23CC[C@]4(C)C(CCC5[C@@]6(C)CC[C@H](OC(C)=O)C(C)(C)C6CC[C@]54C)C2=C(C(C)C)C(=O)C3)C[C@@H](Br)[C@@H]1OC(C)=O` (stereo partly shown) [Compound 1c], the IC50 is 35.2 µM in data set [1] (MCF-7 cells); 40.9 µM in data set [2]; 9 µM in [3]; 3.8 µM in data set [4]; ≥ 250 µM in [5]; 27 µM in [6]. The IC50 in the data set on PC-3 was ≥ 250 µM; in [7] (HCT116 p53 mut cells), 14 µM; in data set [8] it was 22.6 µM; in data set [9] (HCT116 p53wt cells) it was 19.1 µM.
As to `CC(=O)OC[C@H]1O[C@H](OC[C@@]23CC[C@]4(C)C(CCC5[C@@]6(C)CC[C@H](OC(C)=O)C(C)(C)C6CC[C@]54C)C2=C(C(C)C)C(=O)C3)C[C@@H](OC(C)=O)[C@@H]1OC(C)=O` (stereo partly shown) [Compound 1b], the IC50 is 17 µM in data set [1] (MCF-7 cells); 10.1 µM in [2]; 6.4 µM in data set [3]; 9.2 µM in data set [4]; ≥ 250 µM in [5]; 41.5 µM in data set [6]. The IC50 in the data set with PC-3 was 39.3 µM; in data set [7] (HCT116 p53 mut cells), 12.4 µM; in data set [8] it was 9.5 µM; in [9] (HCT116 p53wt cells) it was 8.6 µM.
